The text below walks through data of patent EP4050002A1, “ANTI-PROLIFERATIVE AGENTS” (First Health Pharmaceuticals B.V., priority 2021, dated 2022).

The structures appear in SMILES notation. Read-outs that look alike come from different tables or passages of the source.

Data set [1] in a line: Dose estimation by allometric relationship (PAD, HED). To be noted: mouse models. The text has this:
Based on pharmacokinetic studies and efficacy in vivo, it is possible to estimate a dosage in humans by allometric relationship (USFDA. Guidance for Industry: Estimating the Maximum Safe Starting Dose in Adult Healthy Volunteer. Rockville, MD: US Food and Drug Administration; 2005). […] The human equivalent dose (HED) can be estimated according with the FDA guidelines by means of the following formula: HED = animal dose × (((animal weight)/(human weight)))^((1−0.67)) [formula]
Based on PAD in mouse models, the HED can be estimated as 1.8 mg/(Kg·day) considering a mouse average weight of 30 g and an adult human body weight of 60 Kg.

Data set [2] is described as follows: Tissue distribution after single I.P. administration. The data set is classed as in vivo, male Swiss Albino Mice.
A further data set deals with MCF10a. The experiment in a line: Cytotoxicity in non-tumor cells, cell count method. Type of data set: cell-based, human. The method, then: The non-specific toxicity of the compounds is evaluated in non-tumor immortalized cells with cell count and / or MTS methods, and in primary Peripheral Blood Mononuclear Cells (PBMC) with the ATP-based method.
Cells were seeded at 3 to 5 x 10^4 cells/well density depending on cell lines and maintained at 37°C in 5% CO2. After 24 hours cells were treated with ascending concentrations of the investigational compounds and the reference (5-fluoro-Uracyl) in a range from 0 to 100 µM. Compounds were dissolved in DMSO which final concentration in each well was 0.5% v:v. After 72 h of incubation with compounds, the cells were detached with trypsin and re-suspended in 1 ml of complete medium; the cell number was evaluated using a Z2 Coulter Counter ("cell count method") (Attallah and Johnson, A simple highly sensitive methods for the determination of cell viability using an electronic particle analyzer, Coulter counter J. Immunol. Methods. 1981, 41, 155; Leonardi et al., Activated kinase screening identifies the IKBKE oncogene as a positive regulator of autophagy. Autophagy, 2019, 15, 312). Alternatively, after the 72 hours of incubation with compounds, the MTS solution (CellTiter 96® AQueous One Solution Cell Proliferation Assay) is added to each well and absorbance at 490 nm wavelength is read after 2 hours of incubation ("MTS method"). […]

Data set [3] is described as follows: Plasma protein binding (rapid equilibrium dialysis). To be noted: for fraction unbound at 5 h, 10 µM: read-out: % Bound in Plasma ± SD (converted); for recovery at 5 h, 10 µM: read-out: % Recovery ± SD. Type of data set: in vitro ADME. The method, then:
In vitro evaluation of test compounds for protein binding in plasma was performed using the rapid equilibrium dialysis method. Ready to use PBS, 9.07-10.00 g, (Sigma Aldrich, catalogue code P3813) was dissolved in 1l of MilliQ water and pH was adjusted to 7.4. 10 mM stock of the test compound was prepared in DMSO. 1 mM solution was prepared by diluting 10 mM stock in methanol. 10 µM working stock was prepared in plasma by spiking 3 µl of 1 mM solution into 297 µl of plasma. An aliquot of 200 µl of plasma containing test compound was spiked into donor well (red chamber) of the insert. 350 µl of PBS was spiked into receiver well (white chamber) of the insert. The plate was incubated at 37 °C in thermo-mixer at 400 rpm for 5 hours. The samples were matrix equilibrated with opposite matrix: 25 µl of plasma sample was matched with 25 µl of blank buffer (PBS) and 25 µl of buffer sample was matched with 25 µl of plasma.
Matrix matched samples were precipitated with 200 µl of acetonitrile containing Telmisartan 100 ng/ml as internal standard. Buffer samples were of phosphate buffer saline pH 7.4 incubated for 5.5 h along with plasma samples. Blank samples were the ones matched with Phosphate buffer Saline pH 7.4 maintained at room temperature.
Samples were vortexed at 1000 rpm for 5 min and centrifuged at 4000 rpm for 10 min. Supernatant was separated, diluted 2 fold with water and analyzed in LC-MS/MS.
To control samples were processed immediately after the preparation of plasma working stock solutions. These samples serve as a measure for calculating the percentage recovery from plasma and buffer of test compounds. The percentage of plasma unbound (% Unbound) and bound (% Bound) fractions were calculated by the following equations: %Unbound = (1−((Tc−Fc))/(Tc))∗100 [formula] %Bound = 100−%Unbound [formula] %Recovery = 100∗(Fc + Tc)/(T0) [formula]
TC = Compound concentration as determined by the calculated concentration on the plasma side of the membrane (donor well); FC = Free compound concentration as determined by the calculated concentration on the buffer side of the membrane (receiver well); T0 = Total compound concentration as determined before dialysis.
The API400 MS and Agilent 1260 Multi sampler LC were used, with 10 uL injection volumes. Typically, plasma protein binding is determined over ≥ 4 hours at 37°C. Under these conditions chemical and/or enzymatic degradation of compounds can occur. The determination of compound recovery is, therefore, of pivotal importance. A low % recovery can flag a variety of potential problems: • The compound is hydrolytically or metabolically unstable • The compound is highly bound to the rapid equilibrium dialysis device • The compound is poorly soluble
A general note: In equilibrium dialysis only unbound substance equilibrates across the membrane.

As a reminder, the IC50 is the midpoint of a concentration-inhibition curve. Turning to `CCCCc1cn(-c2ccc(-c3nnc(-c4ccccc4C(F)(F)F)o3)cc2)nn1` [Compound 5], the “pharmacologically active dose (PAD)” value in data set [1] is on record as 22.5 mg·kg-1·day-1. Further, the Kidney to plasma in data set [2] (4 hours after single administration I.P. 45 mg/Kg) is 11.5; in data set [2] (8 hours after single administration I.P. 45 mg/Kg), 9.2; in data set [2] (24 hours after single administration I.P. 45 mg/Kg), 9.3. In the data set with MCF10a (Homo sapiens, MCF-10A, MCF10a, 72 hours of incubation, cell count method), this compound returned an IC50 of 440 µM. Moreover, the toxicity result in the data set with MCF10a (non tumor cell lines (Table 17)) is “above 100 µM”. Moreover, the fraction unbound at 5 h, 10 µM in data set [3] (Human plasma) was 0.0022; in data set [3] (Mouse plasma), 0.0003; in data set [3] (Rat plasma) it was 0.0005. Also, the recovery at 5 h, 10 µM in data set [3] (Human plasma) is 79 ± 0.99%; in data set [3] (Mouse plasma) it was 83.7 ± 13.4%; in data set [3] (Rat plasma) it was 63.4 ± 2.74%.
